Experimental data published in PubChem BioAssay (NCI).
Several values for one entry are separate records, joined by “and”; a condition that tells them apart may be missing. Identical values can stand only once.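 Five concentrations, 48 hours, 96-well plates. Abbreviation: GI50, concentration required for 50% inhibition of growth. TGI denotes the concentration required for complete inhibition of growth.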

Tests used:
Assay in all cases: NCI anticancer screen, dose series, 48 h
A549 NSCLC = system: A549 NSCLC
HCT-116 colon = system: HCT-116 colon
HOP-62 NSCLC = system: HOP-62 NSCLC
IGROV1 ovarian = system: IGROV1 ovarian
K-562 leukemia = system: K-562 leukemia
MDA-MB-435 = system: MDA-MB-435
SF-539 CNS = system: SF-539 CNS
SK-MEL-2 melanoma = system: SK-MEL-2 melanoma

Compound | GI50 (A549 NSCLC) [µM] | TGI (A549 NSCLC) [µM] | GI50 (HCT-116 colon) [µM] | TGI (HCT-116 colon) [µM] | GI50 (HOP-62 NSCLC) [µM] | TGI (HOP-62 NSCLC) | GI50 (IGROV1 ovarian) [µM] | TGI (IGROV1 ovarian) [µM] | GI50 (K-562 leukemia) [µM] | TGI (K-562 leukemia) [µM] | GI50 (MDA-MB-435) [µM] | TGI (MDA-MB-435) [µM] | GI50 (SF-539 CNS) [µM] | TGI (SF-539 CNS) [µM] | GI50 (SK-MEL-2 melanoma) [µM] | TGI (SK-MEL-2 melanoma)
CCOC(=O)CNC(=O)CCCn1c(=O)c2c3ccccc3n(C)c2n2nnc(-c3ccccc3)c12 | 32.8 | > 50 | 9.04 | 27.3 | 5.88 | 17.7 µM | 8.87 | 29.9 | 4.73 | > 50 | > 50 | > 50 | 4.3 | 11.6 | 9.46 | 29.1 µM
COc1cccc2c1cc([N+](=O)[O-])c1c(C(=O)O)cc3c(c12)OCO3 | 25.8 | > 100 | – | > 80.6 | 28.4 | 97.8 µM and > 76.6 µM | 34.3 | > 100 | 46.3 | > 100 | 41.5 | > 100 | – | > 75.8 | 22.9 | 52.3 µM and > 100 µM
Oc1ccc(Br)cc1/C=N/NC(=S)NC12CC3CC(CC(C3)C1)C2 | 1.82 | 5.07 | 1.57 | 4.57 | 1.52 | 3.32 µM | 1.81 | 5.89 | 1.87 | 5.3 | 1.98 | 5.45 | 3.19 | 11.3 | 2.09 | 4.59 µM
CCN(CC)CCCCCOc1cc(O)c2c(=O)cc(-c3ccccc3)oc2c1 | 5.26 | 18.5 | 1.74 | 3.52 | 2.43 | 9.71 µM | 2.08 | 4.87 | 1.86 | 3.56 | 3.18 | 7.63 | 2.43 | 6.01 | 3.23 | 11.4 µM
COc1cc(/C=C2\CC3C4CC=C5C[C@@H](N6CCCC6)CC[C@]5(C)C4CC[C@]3(C)[C@H]2OC(C)=O)ccc1OCCN1CCCCC1 (stereo not given in full) | – | – | 0.275 | 0.85 | 1.49 | 2.87 µM | 1.59 | 3.23 | 0.105 | 0.71 | 1.83 | 3.44 | 1.66 | 3.16 | 1.87 | 3.36 µM
Cc1[nH]nc2c1N=C(c1ccccc1F)c1cc(C#N)ccc1N2 | – | – | 0.143 | 6.91 | 0.899 | 8.85 µM | 5.4 | 16.2 | 0.11 | > 25 | – | – | 0.134 | 4.93 | 2.39 | 8.81 µM
O=C(O)C(Br)C(Br)c1ccccc1[N+](=O)[O-] (stereo not given) | – | > 100 | – | > 100 | – | > 100 µM | – | > 100 | – | > 100 | – | > 100 | – | > 100 | – | > 100 µM
COc1ccc(NC(=O)Nc2ccc(Nc3nc(C)cc(Nc4ccc(C)cc4)n3)cc2)cc1 | – | – | – | – | 1.58 | 3.05 µM | 1.71 | 3.28 | – | – | – | – | 1.7 | 3.31 | 1.85 | 3.57 µM
C=CC[Se]C(=O)Cc1c(C)n(C(=O)c2ccc(Cl)cc2)c2ccc(OC)cc12 | 1.62 | 6.18 | 1.76 | 3.57 | 0.435 | 2.93 µM | 1.88 | 3.75 | 3.22 | 19.2 | 2.71 | 8.44 | 1.66 | 3.02 | 1.94 | 4.14 µM
O=C(Nc1cccc(C(F)(F)F)c1)c1cccc(NC2=C(Cl)C(=O)N(Cc3ccccc3)C2=O)c1 | 17 | > 100 | 13.5 | 39.2 | 40.1 | > 100 µM | 1.92 | 18.3 | 3.02 | 17.6 | 8.69 | > 100 | 26 | 62.7 | 14.6 | 40.1 µM
CCCCCCNC(=O)Oc1ccc(/C(=C(\C)c2ccccc2)c2ccc(OCCN3CCCCC3)cc2)cc1 | 4.31 | 18.6 | 1.49 | 2.89 | 3.22 | 10.9 µM | 3.01 | 8.85 | 1.7 | 4.96 | 1.84 | 4.01 | 1.75 | 3.22 | 2 | 4.33 µM
CCCC(=O)NC(c1ccc2c(c1)OCO2)c1ccc2cccnc2c1O (stereo not given) | 2.27 | > 100 | 0.387 | 56.1 | 1.2 | > 100 µM | 0.888 | > 100 | 0.976 | > 100 | 3.7 | > 100 | 1.41 | > 100 | 4.99 | > 100 µM
COc1cc(-c2nc(SCC(=O)Nc3ccc(C(C)=O)cc3)[nH]c(=O)c2C#N)cc(OC)c1OC | > 100 | > 100 | 42.1 | > 100 | 79.3 | > 100 µM | 53.4 | > 100 | 37.7 | > 100 | 24.4 | 87.6 | 29.6 | > 100 | – | –
Oc1ccc(/C=N/Nc2nc3ccccc3s2)c(O)c1 | 2.54 | 51.9 | 2.78 | 17.2 | 3.43 | > 100 µM | 0.904 | 10.8 | 2.59 | > 100 | 3.08 | > 100 | 1.89 | 9.82 | – | –
O=C1NC(=O)C2(CCC(O)C2)c2cc[n+]([O-])cc21 (stereo not given) | – | > 100 | – | > 100 | – | > 100 µM | – | > 100 | – | > 100 | – | > 100 | – | > 100 | – | > 100 µM
CCN(Cc1nc2cc(C(F)(F)F)ccc2nc1-c1ccccc1)c1ccc(OC)c(OC)c1 | 0.369 | 16.3 | 11.1 | 23.2 | 15.1 | 29.1 µM | 16.8 | 33.7 | 6.72 | 24.6 | 16.4 | 32.4 | 15.9 | 33.1 | 16.7 | 34.7 µM
